Results: patent publication US20100093865A1, “SULPHUR-LINKED COMPOUNDS FOR TREATING OPHTHALMIC DISEASES AND DISORDERS” (Acucela, Inc., priority 2008, published 2010)

How the values were obtained:
[1] = molecular target: T1, recombinant human RPE65 and LRAT (visual cycle isomerase) (Homo sapiens, UniProt Q16518); experiment: Human in vitro isomerase inhibition assay; type: biochemical
T1 construct: expressed in transfected cells; host or cells: HEK293 cell clone (homogenate); CRALBP made in E. coli TOP10
T1 sequence (Q16518 2-533 limits assumed): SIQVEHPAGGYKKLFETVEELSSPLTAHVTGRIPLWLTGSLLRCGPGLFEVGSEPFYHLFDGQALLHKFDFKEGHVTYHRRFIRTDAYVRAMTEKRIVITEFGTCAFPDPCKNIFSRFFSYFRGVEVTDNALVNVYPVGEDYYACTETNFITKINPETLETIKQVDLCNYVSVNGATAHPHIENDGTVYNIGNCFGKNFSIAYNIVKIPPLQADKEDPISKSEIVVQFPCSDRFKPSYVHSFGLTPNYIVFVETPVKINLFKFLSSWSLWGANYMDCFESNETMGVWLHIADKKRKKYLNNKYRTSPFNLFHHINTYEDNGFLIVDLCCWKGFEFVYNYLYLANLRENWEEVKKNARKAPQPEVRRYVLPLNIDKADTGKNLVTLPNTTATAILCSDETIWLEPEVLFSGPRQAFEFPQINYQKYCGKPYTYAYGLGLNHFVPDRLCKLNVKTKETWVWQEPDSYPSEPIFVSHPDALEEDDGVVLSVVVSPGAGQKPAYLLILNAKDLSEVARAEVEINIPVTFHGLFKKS
Description: The capability of sulphur-linked compounds to inhibit the activity of a visual cycle isomerase was determined in vitro either in a human or bovine-based assay system.
Recombinant human apo cellular retinaldehyde-binding protein (CRALBP) was cloned and expressed according to standard methods in the molecular biology art (see Crabb et al., Protein Science 7:746-57 (1998); Crabb et al., J. Biol. Chem. 263:18688-92 (1988)). Briefly, total RNA was prepared from confluent ARPE19 cells (American Type Culture Collection, Manassas, Va.), cDNA was synthesized using an oligo(dT)12-18 primer, and then DNA encoding CRALBP was amplified by two sequential polymerase chain reactions (see Crabb et al., J. Biol. Chem. 263:18688-92 (1988); Intres, et al., J. Biol. Chem. 269:25411-18 (1994); GenBank Accession No. L34219.1). The PCR product was sub-cloned into pTrcHis2-TOPO TA vector according to the manufacturer's protocol (Invitrogen Inc., Carlsbad, Calif.; catalog no. K4400-01), and then the sequence was confirmed according to standard nucleotide sequencing techniques. Recombinant 6×His-tagged human CRALBP was expressed in One Shot TOP 10 chemically competent E. coli cells (Invitrogen), and the recombinant polypeptide was isolated from E. coli cell lysates by nickel affinity chromatography using nickel (Ni) Sepharose XK16-20 columns for HPLC (Amersham Bioscience, Pittsburgh, Pa.; catalog no. 17-5268-02). The purified 6×His-tagged human CRALBP was dialyzed against 10 mM bis-tris-Propane (BTP) and analyzed by SDS-PAGE. The molecular weight of the recombinant human CRALBP was approximately 39 kDal.
The concentration dependent effect of the compounds disclosed herein on the retinol isomerization reaction were evaluated with a recombinant human enzyme system. […] A homogenate of HEK293 cell clone expressing recombinant human RPE65 and LRAT were the source of the visual enzymes, and exogenous all-trans-retinol (about 20 μM) was used as the substrate. Recombinant human CRALBP (about 80 ug/mL) was added to enhance the formation of 11-cis-retinal. The 200 μL Bis-Tris Phosphate buffer (10 mM, pH 7.2) based reaction mixture also contains 0.5% BSA, and 1 mM NaPPi. In this assay, the reaction was carried out at 37° C. in duplicates for one hour and was terminated by addition of 300 μL methanol. The amount of reaction product, 11-cis-retinol, was measured by HPLC analysis following Heptane extraction of the reaction mixture. […] The ability of the compounds disclosed herein to inhibit isomerization reaction is quantified and the respective IC50 value is determined. Table 2 summarizes the IC50 values of all the compounds of the present disclosure. […] The production of 11-cis-retinol was measured at different doses of compound administration.

isomerase = molecular target: T2, isomerase (Mus musculus, UniProt Q91ZQ5); experiment: In vivo murine isomerase assay; settings: oral, mice, 11-cis-retinal (oxime) recovery after photobleaching
T2 construct: from tissue; host or cells: eye of living mice (CD-1; Balb/c also mentioned)
T2 sequence (Q91ZQ5 1-533): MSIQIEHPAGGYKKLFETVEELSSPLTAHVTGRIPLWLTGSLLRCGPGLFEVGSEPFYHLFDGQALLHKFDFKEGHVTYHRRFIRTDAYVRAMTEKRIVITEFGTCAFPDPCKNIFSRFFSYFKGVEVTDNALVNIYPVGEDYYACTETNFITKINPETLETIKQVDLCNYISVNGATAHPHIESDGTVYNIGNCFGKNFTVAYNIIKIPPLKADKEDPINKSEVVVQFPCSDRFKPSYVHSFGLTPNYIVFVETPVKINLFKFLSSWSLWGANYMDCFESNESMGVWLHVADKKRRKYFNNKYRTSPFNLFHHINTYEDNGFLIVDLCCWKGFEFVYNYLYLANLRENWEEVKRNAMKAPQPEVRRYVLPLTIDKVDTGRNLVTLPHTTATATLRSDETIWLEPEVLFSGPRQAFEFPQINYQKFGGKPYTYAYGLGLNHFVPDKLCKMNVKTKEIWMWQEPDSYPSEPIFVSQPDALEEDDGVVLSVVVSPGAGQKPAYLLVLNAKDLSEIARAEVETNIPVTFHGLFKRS
Description: The capability of sulphur-linked compounds to inhibit isomerase is determined by an in vivo murine isomerase assay. Brief exposure of the eye to intense light (“photobleaching” of the visual pigment or simply “bleaching”) is known to photo-isomerize almost all 11-cis-retinal in the retina. The recovery of 11-cis-retinal after bleaching can be used to estimate the activity of isomerase in vivo. Delayed recovery, as represented by lower 11-cis-retinal oxime levels, indicates inhibition of isomerization reaction. […] See also Deigner et al., Science, 244: 968-71 (1989); Gollapalli et al., Biochim Biophys Acta. 1651: 93-101 (2003); Parish, et al., Proc. Natl. Acad. Sci. USA, 14609-13 (1998); Radu, et al., Proc Natl Acad Sci USA 101: 5928-33 (2004).
About six-week old dark-adapted CD-1 (albino) male mice are orally gavaged with compound (0.01-25 mg/kg) dissolved in an appropriate amount of oil (about 100 μl corn oil containing 10% ethanol, at least five animals per group). Mice are gavaged with the sulphur-linked compounds described in the present disclosure. After about 2-24 hours in the dark, the mice are exposed to photobleaching of about 5,000 lux of white light for 10 minutes. The mice are allowed to recover for about 2 hours in the dark. The animals are then sacrificed by carbon dioxide inhalation. Retinoids are extracted from the eye and the regeneration of 11-cis-retinal is assessed at various time intervals.
All steps are performed in darkness with minimal redlight illumination (low light darkroom lights and red filtered flashlights for spot illumination as needed) (see, e.g., Maeda et al., J. Neurochem 85:944-956, 2003; Van Hooser et al., J Biol Chem 277:19173-82, 2002). After the mice are sacrificed, the eyes are immediately removed and placed in liquid nitrogen for storage.
The eyes are placed in about 500 μL of bis-tris propane buffer (10 mM, pH ˜7.3) and about 20 μL of 0.8M hydroxylamine (pH-7.3). The eyes are cut up into small pieces with small iris scissors and then thoroughly homogenized at 30000 rpm with a mechanical homogenizer (Polytron PT 1300 D) in the tube until no visible tissue remains. About […] of methanol and about 500 μL of heptane are added to each tube. The tubes are attached to a vortexer so that the contents are mixed thoroughly for about 15 minutes in room temperature. The organic phase is separated from the aqueous phase by centrifugation for about 10 min at 13K rpm, 4° C. 240 μL of the solution from the top layer (organic phase) is removed and transferred to clean 300 μl glass inserts in HPLC vials using glass pipette and the vials are crimped shut tightly.
The samples are analyzed on an Agilent 1100 HPLC system with normal phase column: SILICA (Beckman Coutlier, dp 5 μm, […]). The running method has a flow rate of 1.5 ml/min; solvent components are 15% solvent 1 (1% isopropanol in ethyl acetate), and 85% solvent 2 (100% hexanes). Loading volume for each sample is about 100 μl; detection wavelength is 360 nm. The area under the curve for 11-cis-retinal oxime is calculated by Agilent Chemstation software and recorded manually. Data processing is performed using Prizm software.
[…] control mice (no compound administered) are sacrificed fully dark-adapted and the eye retinoids analyzed. Light (bleached) control mice (no compound administered) are sacrificed and retinoids isolated and analyzed immediately after light treatment.
A dose response in vivo isomerase inhibition study is performed with the compounds of the present disclosure. Male or female mice (such as Balb/c mice) (at least about 8/group) are dosed orally with about 0.01 to 25 mg/kg of the compounds of HCl salts of the compounds in sterile water as solution, and photobleached about 4 hours after dosing. Recovery and retinoid analysis is performed as described above. Dark control mice are vehicle-only treated, sacrificed fully dark adapted without light treatment, and analyzed. […]

| Compound | inhibition of 11-cis-retinol production [1] | % Inibition 0.3 mg/kg, 4 h (isomerase) [%] | % Inibition 1.0 mg/kg, 4 h (isomerase) [%] |
| --- | --- | --- | --- |
| NC/C=C/c1cccc(SCC2CCCCC2)c1 [Example 11, (E)-3-(3-(cyclohexylmethylthio)phenyl)prop-2-en-1-amine] | dose-dependent inhibition | – | – |
| NCCC(O)c1cccc(S(=O)(=O)CC2CCCCC2)c1 (centres unmarked) [Example 9, 3-amino-1-(3-(cyclohexylmethylsulfonyl)phenyl)propan-1-ol] | – | 3.7 | 20.3 |
| [2H]C([2H])(C1CCCCC1)S(=O)(=O)c1cccc(C(O)CCN)c1 (centres unmarked) [Example 50, 3-amino-1-(3-(cyclohexyldideuteromethylsulfonyl)phenyl)propan-1-ol] | – | – | −1.6 |
| [2H]C([2H])(Sc1cccc(C(O)CCN)c1)C1CCCCC1 (centres unmarked) [Example 49, 3-amino-1-(3-(cyclohexyldideuteromethylthio)phenyl)propan-1-ol] | – | – | −8.5 |
| NCCC(O)c1cccc(SCC2(O)CCCCC2)c1 (centres unmarked) [Example 27, 1-((3-(3-amino-1-hydroxypropyl)phenylthio)methyl)cyclohexanol] | – | – | 14.8 |
| CCCCSc1cccc([C@H](O)CCN)c1 [Example 18, (R)-3-amino-1-(3-(butylthio)phenyl)propan-1-ol] | – | – | 68.6 |
| NCCCc1cccc(S(=O)(=O)CC2CCCCC2)c1 [Example 5, 3-(3-(cyclohexylmethylsulfonyl)phenyl)propan-1-amine] | dose-dependent inhibition | 1.1 | −12.1 |
| [2H]C1([2H])C([2H])([2H])C([2H])([2H])C([2H])(CSc2cccc(C(O)CCN)c2)C([2H])([2H])C1([2H])[2H] (centres unmarked) [Example 53, 3-amino-1-(3-((perdeuterocyclohexyl)methylthio)phenyl)propan-1-ol] | – | – | −4.9 |
| NC/C=C/c1cccc(S(=O)(=O)CC2CCCCC2)c1 [Example 14, (E)-3-(3-(cyclohexylmethylsulfonyl)phenyl)prop-2-en-1-amine] | dose-dependent inhibition | – | – |
| NCC[C@@H](O)c1cccc(SCC2CCCCC2)c1 [Example 17, (R)-3-amino-1-(3-(cyclohexylmethylthio)phenyl)propan-1-ol] | dose-dependent inhibition | – | 33.4 |
| NCCC(=O)c1cccc(S(=O)(=O)CC2CCCCC2)c1 [Example 10, 3-amino-1-(3-(cyclohexylmethylsulfonyl)phenyl)propan-1-one] | – | – | 79.3 |
| [2H]C([2H])(N)CC(O)c1cccc(SCC2CCCCC2)c1 (centres unmarked) [Example 45, 3-amino-1-(3-(cyclohexylmethylthio)phenyl)-3,3-dideuteropropan-1-ol] | – | – | 87.1 |
| NCCC(O)c1cccc(SCC2CCCCC2)c1 (centres unmarked) [Example 8, 3-amino-1-(3-(cyclohexylmethylthio)phenyl)propan-1-ol] | – | – | −14.2 |
